# Experimental data reported in patent US20240309016A1, “MACROCYCLIC HETEROCYCLE COMPOUNDS AND USE THEREOF” (TAKEDA PHARMACEUTICAL COMPANY LIMITED, priority 2023, published 2024).
# Target: T1, human OX2 receptor (Homo sapiens, UniProt O43614)
# T1 construct: expressed in transfected cells
# T1 sequence (O43614 1-444): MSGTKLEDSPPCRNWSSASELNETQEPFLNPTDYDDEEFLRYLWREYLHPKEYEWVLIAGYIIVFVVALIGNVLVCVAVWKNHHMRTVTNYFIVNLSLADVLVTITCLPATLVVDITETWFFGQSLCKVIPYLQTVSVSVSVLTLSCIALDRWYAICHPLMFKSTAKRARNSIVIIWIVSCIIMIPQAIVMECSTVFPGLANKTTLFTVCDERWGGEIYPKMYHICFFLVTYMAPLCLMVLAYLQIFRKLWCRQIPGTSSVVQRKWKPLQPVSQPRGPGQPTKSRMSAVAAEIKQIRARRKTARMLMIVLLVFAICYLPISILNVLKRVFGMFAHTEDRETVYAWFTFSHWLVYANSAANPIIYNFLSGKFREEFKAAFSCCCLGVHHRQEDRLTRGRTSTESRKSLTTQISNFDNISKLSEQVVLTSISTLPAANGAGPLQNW
# Test: Measurement of orexin type 2 receptor agonist activity (Experimental Example 2; Fluo-4 AM calcium fluorescence, FDSS μCELL)
# Assay type: cell-based
# Conditions: compound at 3 μM; CHO cells expressing human OX2 receptor; DMSO = 0%, 10 nM orexin A (human) = 100%
# Description: In order to obtain cell clones that stably express human orexin type 2 receptor, human orexin type 2 (residues 1-444, NCBI Reference Sequence: AK314279) was constructed in a pcDNA3.1 (+) vector (Invitrogen) to express in mammalian cells. This plasmid DNA was transfected into CHO-K1 cells by electroporation, and stable clones were obtained by limiting dilution using resistance to G418 as a selection marker.
# CHO cells in which human OX2 receptor was forcibly expressed were seeded at 10,000 cells/well into a 384-well black transparent bottom plate (BD falcon), and were incubated at 37° C., 5% CO2 for 1 day after incubation at room temperature for 30 minutes. After removing the cell plate medium, assay buffer containing calcium indicator A (HBSS (Thermo Fisher Scientific), 20 mM HEPES (Thermo Fisher Scientific), 0.1% BSA (Sigma-Aldrich), 2.5 μg/mL Fluo-4 AM (Dojin Kagaku), 0.08% Pluronic F127 (Dojin Kagaku), 1.25 mM probenecid (Dojin Kagaku)) was added at 30 μL/well. After incubation in a 5% CO2 incubator at 37° C. for 30 minutes, it was incubated at room temperature for another 30 minutes. Add 10 μL/well of the test compound diluted with assay buffer B (HBSS, 20 mM HEPES, 0.1% BSA), and use FDSS μCELL (Hamamatsu Photonics) to measure the fluorescence value every 1 second for 1 minute, and then every 2 seconds for 1 minute. It was measured for 1 minute and 40 seconds. The amount of fluorescence value when DMSO is added instead of the test compound is defined as 0%, and the amount of fluorescence value when orexin A (human) (Peptide Institute) with a final concentration of 10 nM is added is defined as 100%. The activity (%) of the test compound was calculated. Table 2-1, 2-2, 2-3, and 2-4 show the activity of each compound at a concentration of 3 μM.
row,SMILES,"OX2R agonist activity (3 μM, %) [%]"
1,"CCS(=O)(=O)N[C@H]1[C@@H](F)CN2C(=O)COc3ccc(C(F)F)c(n3)Oc3cccc(c3)C[C@@H]12 [Example 87, N-[(15aS,16R,17S)-7-(difluoromethyl)-17-fluoro-1-oxo-1,2,15a,16,17,18-hexahydro-15H-4,8-(azeno)-14,10-(metheno)pyrrolo[1,2-d][1,12,4]dioxazacyclo-heptadecin-16-yl]ethanesulfonamide]",105
2,"CCS(=O)(=O)N[C@H]1[C@@H](F)CN2C(=O)N(C)Cc3ccc(Cl)c(n3)Oc3cccc(c3F)C[C@@H]12 [Example 73, N-[(15aS,16R,17S)-7-chloro-17,20-difluoro-2-methyl-1-oxo-2,3,15a,16,17,18-hexahydro-1H,15H-4,8-(azeno)-10,14-(metheno)pyrrolo[1,2-j][1,8,10]oxadiazacyclo-heptadecin-16-yl]ethanesulfonamide]",101
3,"Cc1ccc2nc1Oc1cccc(c1F)C[C@H]1[C@@H](NS(=O)(=O)C(C)C)C(F)(F)CN1C(=O)NC2 [Example 97, N-[(15aS,16R)-17,17,20-trifluoro-7-methyl-1-oxo-2,3,15a,16,17,18-hexahydro-1H,15H-4,8-(azeno)-14,10-(metheno)pyrrolo[1,2-j][1,8,10]oxadiazacyclo-heptadecin-16-yl]propane-2-sulfonamide]",108
4,"CS(=O)(=O)N[C@H]1[C@@H](F)CN2C(=O)COc3ccc(Cl)c(n3)Cc3cccc(c3F)C[C@@H]12 [Example 67, N-[(15aS,16R,17S)-7-chloro-17,20-difluoro-1-oxo-1,2,15a,16,17,18-hexahydro-9H,15H-4,8-(azeno)-14,10-(metheno)pyrrolo[1,2-d][1,4]oxazacycloheptadecin-16-yl]methanesulfonamide]",103
5,"CCS(=O)(=O)N[C@H]1CCN2C(=O)NCc3nc(c(F)cc3F)Oc3cccc(c3)C[C@@H]12 [Example 20, N-[(15aS,16S)-5,7-difluoro-1-oxo-2,3,15a,16,17,18-hexahydro-1H,15H-4,8-(azeno)-14,10-(metheno)pyrrolo[1,2-j][1,8,10]oxadiazacyclo-heptadecin-16-yl]ethanesulfonamide]",105
6,"CCS(=O)(=O)N[C@H]1[C@@H](F)CN2C(=O)COc3ccc(Cl)c(n3)Oc3cccc(c3)C[C@@H]12 [Example 69, N-[(15aS,16R,17S)-7-chloro-17-fluoro-1-oxo-1,2,15a,16,17,18-hexahydro-15H-4,8-(azeno)-14,10-(metheno)pyrrolo[1,2-d][1,12,4]dioxazacyclo-heptadecin-16-yl]ethanesulfonamide]",101
7,"Cc1ccc2nc1Oc1cccc(c1F)C[C@H]1[C@@H](NS(=O)(=O)N(C)C)C(F)(F)CN1C(=O)NC2 [Example 11, N,N-dimethyl-N′-[(15aS,16R)-17,17,20-trifluoro-7-methyl-1-oxo-2,3,15a,16,17,18-hexahydro-1H,15H-4,8-(azeno)-14,10-(metheno)pyrrolo[1,2-j][1,8,10]oxadiazacyclo-heptadecin-16-yl]sulfuric diamide]",98
8,"CS(=O)(=O)N[C@H]1[C@@H](F)CN2C(=O)NCc3ccc(Cl)c(n3)Oc3cccc(c3F)C[C@@H]12 [Example 15, N-[(15aS,16R,17S)-7-chloro-17,20-difluoro-1-oxo-2,3,15a,16,17,18-hexahydro-1H,15H-4,8-(azeno)-14,10-(metheno)pyrrolo[1,2-j][1,8,10]oxadiazacyclo-heptadecin-16-yl]methanesulfonamide]",104
9,"Cc1ccc2nc1OCc1cccc(c1F)C[C@H]1[C@@H](NS(C)(=O)=O)C(F)(F)CN1C(=O)NC2 [Example 84, N-[(16aS,17R)-18,18,21-trifluoro-7-methyl-1-oxo-2,3,16a,17,18,19-hexahydro-1H,10H,16H-4,8-(azeno)-15,11-(metheno)pyrrolo[1,2-j][1,8,10]oxadiazacyclo-octadecin-17-yl]methanesulfonamide]",104
10,"CCS(=O)(=O)N[C@H]1[C@@H](F)CN2C(=O)COc3ccc(Cl)c(n3)Oc3cccc(c3F)C[C@@H]12 [Example 80, N-[(15aS,16R,17S)-7-chloro-17,20-difluoro-1-oxo-1,2,15a,16,17,18-hexahydro-15H-4,8-(azeno)-14,10-(metheno)pyrrolo[1,2-d][1,12,4]dioxazacyclo-heptadecin-16-yl]ethanesulfonamide]",100

# Results, then the molecule that gave them:
row,"OX2R agonist activity (3 μM, %) [%]",SMILES
1,99,"CS(=O)(=O)N[C@@H]1[C@@H]2Cc3cccc(c3F)Oc3nc(ccc3Cl)CNC(=O)N2CC1(F)F [Example 14, N-[(15aS,16R)-7-chloro-17,17,20-trifluoro-1-oxo-2,3,15a,16,17,18-hexahydro-1H,15H-4,8-(azeno)-14,10-(metheno)pyrrolo[1,2-j][1,8,10]oxadiazacyclo-heptadecin-16-yl]methanesulfonamide]"
2,106,"CS(=O)(=O)N[C@@H]1[C@@H]2Cc3cccc(c3)Oc3nc(ccc3Cl)CNC(=O)N2CC1(F)F [Example 92, N-[(15aS,16R)-7-chloro-17,17-difluoro-1-oxo-2,3,15a,16,17,18-hexahydro-1H,15H-4,8-(azeno)-14,10-(metheno)pyrrolo[1,2-j][1,8,10]oxadiazacyclohepta-decin-16-yl]methanesulfonamide]"
3,108,"CCS(=O)(=O)N[C@@H]1[C@@H]2Cc3cc(ccc3F)Oc3nc(ccc3C)CNC(=O)N2CC1(F)F (relative stereo) [Example 90, N-[rel-(15aS,16R)-13,17,17-trifluoro-7-methyl-1-oxo-2,3,15a,16,17,18-hexahydro-1H,15H-4,8-(azeno)-14,10-(metheno)pyrrolo[1,2-j][1,8,10]oxadiazacyclohepta-decin-16-yl]ethanesulfonamide (optical isomer)]"
4,100,"CCS(=O)(=O)N[C@@H]1[C@@H]2Cc3cccc(c3F)Oc3nc(ccc3C(F)F)CNC(=O)N2CC1(F)F [Example 29, N-[(15aS,16R)-7-(difluoromethyl)-17,17,20-trifluoro-1-oxo-2,3,15a,16,17,18-hexahydro-1H,15H-4,8-(azeno)-10,14-(metheno)pyrrolo[1,2-j][1,8,10]oxadiazacyclo-heptadecin-16-yl]ethanesulfonamide]"
5,100,"CCS(=O)(=O)N[C@@H]1[C@@H]2Cc3cccc(c3)Oc3nc(ccc3Cl)CNC(=O)N2CC1(F)F (relative stereo) [Example 53, N-[rel-(15aR,16S)-7-chloro-17,17-difluoro-1-oxo-2,3,15a,16,17,18-hexahydro-1H,15H-4,8-(azeno)-14,10-(metheno)pyrrolo[1,2-j][1,8,10]oxadiazacyclo-heptadecin-16-yl]ethanesulfonamide (optical isomer)]"
6,104,"CCS(=O)(=O)N[C@H]1[C@@H](F)CN2C(=O)NCc3ccc(Cl)c(n3)Oc3cccc(c3F)C[C@@H]12 [Example 24, N-[(15aS,16R,17S)-7-chloro-17,20-difluoro-1-oxo-2,3,15a,16,17,18-hexahydro-1H,15H-4,8-(azeno)-14,10-(metheno)pyrrolo[1,2-j][1,8,10]oxadiazacyclo-heptadecin-16-yl]ethanesulfonamide]"
7,102,"Cc1ccc2nc1Oc1cc(ccc1F)C[C@H]1[C@@H](NS(C)(=O)=O)C(F)(F)CN1C(=O)NC2 (relative stereo) [Example 86, N-[rel-(15aS,16R)-11,17,17-trifluoro-7-methyl-1-oxo-2,3,15a,16,17,18-hexahydro-1H,15H-4,8-(azeno)-14,10-(metheno)pyrrolo[1,2-j][1,8,10]oxadiazacyclo-heptadecin-16-yl]methanesulfonamide (optical isomer)]"
8,101,"CCS(=O)(=O)N[C@H]1[C@@H](F)CN2C(=O)NCc3ccc(C)c(n3)Oc3cccc(c3)C[C@@H]12 [Example 42, N-[(15aS,16R,17S)-17-fluoro-7-methyl-1-oxo-2,3,15a,16,17,18-hexahydro-1H,15H-4,8-(azeno)-14,10-(metheno)pyrrolo[1,2-j][1,8,10]oxadiazacyclo-heptadecin-16-yl]ethanesulfonamide]"
